In patent US10292973B2, “Covalent irreversible inhibitors of USP7 as anti-cancer agents” (PROGENRA, INC., priority 2015, dated 2019):
“Also recorded” adds a separate entry of the source.

Tests used:
[1] = pooled analysis of 14 phase I-III studies, various doses; cited from earlier work
USP7 = biological target: T1, USP7 (Homo sapiens, UniProt Q93009); assay: DUB activity of USP7 immunoprecipitated from treated Jurkat cells (Ub-EKL assay), pulse treatment and washout; type: cell-based; settings: washed; for USP7 catalytic activity returned: Jurkat cells exposed 2 hours, immunoprecipitated USP7
T1 construct: USP7 was immuno-precipitated from lysates and USP7 activity measured; endogenous in cells; host or cells: Jurkat cells
Description: FIG. 5A-FIG. 5C graphically illustrate examples of the disclosed USP7 inhibitors of the invention that are irreversible inhibitors. Jurkat cells were treated with 10 μM USP7i for indicated time period (FIG. 5A) or pulse treated for 2 h with 10 μM compound 5 (FIG. 5B), washed and incubated for the indicated time period followed by DUB activity measurement of immunoprecipitated USP7 as well as total cell lysate (FIG. 5C) using Ub-EKL assay as described previously (U.S. Pat. No. 8,680,139). A portion of the immunoprecipitated USP7 is separated on 10% SDS-PAGE and immunoblotted with anti-USP7 antibody to detect the level of USP7 protein (shown at the top of graphs in FIG. 5A and FIG. 5B). […] Jurkat cells were exposed to compound 5 for 2 hours and the compounds were washed away followed by incubation for various time points. Cells were harvested, lysed and their USP7 immunoprecipitated and washed with buffer. […] Jurkat cells were incubated with an exemplary compound of the present invention (e.g., compound 5), washed, and incubated for an additional 0-96 h. USP7 was immuno-precipitated from lysates and USP7 activity measured. […] Total cell deubiquitinase activity can be performed to determine selectivity of these compounds (FIG. 5C). These experiments delineate a simple, powerful biomarker for determining the dose-efficacy relationship in the pre-clinical/clinical evaluation of irreversible USP7 inhibitors. Inhibitors were also tested in cells for effects on various PD markers, including three major USP7 substrates, DNMT1, UHRF1 and HDM2 .

DNMT1, UHRF1 and HDM2 = assay: Immunoblot of USP7 substrates DNMT1, UHRF1 and HDM2 in Jurkat cells; type: cell-based; settings: 24 h treatment, immunoblot (FIG. 6)
Description: FIG. 6 graphically illustrates a decrease in USP7 oncogenic substrates DNMT1, UHRF1 and HDM2 levels in Jurkat cells treated with the USP7i compound 5. 20 μg total cell lysates from each samples were separated on 10% SDS-PAGE and immunoblotted with antibodies against DNMT1, UHRF1, HDM2 and Actin (loading control).
Jurkat cells were incubated with an exemplary compound of the present invention (e.g., compound 5), washed, and incubated for an additional 0-96 h. USP7 was immuno-precipitated from lysates and USP7 activity measured. […] Total cell deubiquitinase activity can be performed to determine selectivity of these compounds (FIG. 5C). These experiments delineate a simple, powerful biomarker for determining the dose-efficacy relationship in the pre-clinical/clinical evaluation of irreversible USP7 inhibitors. Inhibitors were also tested in cells for effects on various PD markers, including three major USP7 substrates, DNMT1, UHRF1 and HDM2 .

USP7core C223A = USP7core C223A (Homo sapiens, UniProt Q93009, C223A); assay: Covalent adduct formation with active site cysteine mutant USP7core C223A by LC-MS; type: binding; settings: 5 μM USP7core C223A, 100 μM compound, room temperature, 4 h
Description: (§1) FIG. 4 provides data showing an example of the covalent irreversible nature of disclosed USP7 inhibitors. 5 μM purified USP7core WT or active site cysteine mutant C223A were incubated with 100 μM Compound 5 or DMSO at room temperature for 4 hrs, and then the protein/compound reaction products were mixed with equal volume of 0.1% Trifluoroacetic acid (TFA) before LC-MS injection. The samples were analyzed by reverse-phase liquid chromatography coupled to UV and MS detection (Agilent, 6220 Accurate-Mass Time-of-Flight (TOF) LC/MS). […] 5μM purified USP7core WT or C223A were incubated with 100 μM of an exemplary compound of the present invention (for example, Compound 5) or DMSO at room temperature for 4 h, and then the protein/compound reaction products were mixed with equal volume of 0.1% Trifluoroacetic acid (TFA). The samples were analyzed by reverse-phase liquid chromatography coupled to UV and MS detection (Agilent, 6220 Accurate-Mass Time-of-Flight (TOF) LC/MS).

USP7core WT = biological target: T2, USP7core WT (Homo sapiens, UniProt Q93009); assay: Covalent adduct formation with purified USP7core WT by LC-MS; type: binding; settings: 5 μM USP7core WT, 100 μM compound, room temperature, 4 h
T2 construct: 5 μM purified USP7core WT or active site cysteine mutant C223A were incubated
Description: as §1

T1 sequence (Q93009 whole entry): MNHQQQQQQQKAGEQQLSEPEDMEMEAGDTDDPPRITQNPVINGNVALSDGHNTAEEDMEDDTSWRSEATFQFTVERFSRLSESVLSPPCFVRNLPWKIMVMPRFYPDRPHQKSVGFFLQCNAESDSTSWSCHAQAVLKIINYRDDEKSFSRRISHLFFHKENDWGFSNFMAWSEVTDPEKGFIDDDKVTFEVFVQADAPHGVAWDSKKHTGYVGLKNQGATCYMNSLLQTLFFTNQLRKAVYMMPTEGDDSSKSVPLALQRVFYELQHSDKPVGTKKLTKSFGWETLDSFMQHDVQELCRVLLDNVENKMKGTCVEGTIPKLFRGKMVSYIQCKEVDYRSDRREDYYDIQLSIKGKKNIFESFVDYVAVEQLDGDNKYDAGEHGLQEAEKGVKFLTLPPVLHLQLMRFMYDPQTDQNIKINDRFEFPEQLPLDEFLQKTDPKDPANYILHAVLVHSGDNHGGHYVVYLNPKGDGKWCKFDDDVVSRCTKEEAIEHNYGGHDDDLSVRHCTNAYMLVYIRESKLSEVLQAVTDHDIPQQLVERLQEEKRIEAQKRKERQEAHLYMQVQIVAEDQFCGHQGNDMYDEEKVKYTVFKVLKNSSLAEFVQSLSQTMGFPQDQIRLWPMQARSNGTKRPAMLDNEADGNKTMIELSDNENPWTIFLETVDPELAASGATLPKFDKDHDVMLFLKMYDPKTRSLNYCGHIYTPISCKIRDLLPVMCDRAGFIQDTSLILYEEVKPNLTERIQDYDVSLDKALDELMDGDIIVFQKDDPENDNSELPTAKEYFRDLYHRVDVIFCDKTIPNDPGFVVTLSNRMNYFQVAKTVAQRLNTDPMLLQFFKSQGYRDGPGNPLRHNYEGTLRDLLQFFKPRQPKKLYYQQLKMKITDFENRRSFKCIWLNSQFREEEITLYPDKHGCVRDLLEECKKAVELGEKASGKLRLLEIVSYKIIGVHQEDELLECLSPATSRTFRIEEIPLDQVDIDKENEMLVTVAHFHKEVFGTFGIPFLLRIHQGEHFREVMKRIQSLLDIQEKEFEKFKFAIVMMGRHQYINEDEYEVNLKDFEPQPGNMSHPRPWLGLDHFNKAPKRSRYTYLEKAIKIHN
Chain of USP7core C223A (Q93009 214-521 C223A limits assumed): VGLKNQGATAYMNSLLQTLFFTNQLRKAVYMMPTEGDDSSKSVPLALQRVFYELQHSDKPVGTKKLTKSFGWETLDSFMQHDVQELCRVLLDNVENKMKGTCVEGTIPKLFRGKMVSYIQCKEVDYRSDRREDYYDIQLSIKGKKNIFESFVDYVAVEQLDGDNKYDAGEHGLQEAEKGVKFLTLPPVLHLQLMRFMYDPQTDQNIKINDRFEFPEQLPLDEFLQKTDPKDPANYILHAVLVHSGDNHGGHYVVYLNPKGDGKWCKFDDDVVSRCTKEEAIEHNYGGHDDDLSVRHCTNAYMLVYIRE
T2 sequence (Q93009 214-521 limits assumed): as the sequence (Q93009 214-521 C223A limits assumed) above, with A10C counted along it

| Compound | patients who experienced immune-related adverse effects [1] [%] | USP7 catalytic activity returned (USP7; 48 hours after washout) | USP7 catalytic activity returned (USP7; 72 hours after washout) [%] | inhibition of USP7 activity after pulse treatment (USP7; Jurkat cells, 10 μM for 2 h, up to 72 h (FIG. 5B)) | DNMT1 level (DNMT1, UHRF1 and HDM2) | HDM2 level (DNMT1, UHRF1 and HDM2) | UHRF1 level (DNMT1, UHRF1 and HDM2) | covalent adduct formation with active site mutant USP7 core C223A (USP7core C223A) | covalent adduct formation with wild type USP7 core (USP7core WT) |
| --- | --- | --- | --- | --- | --- | --- | --- | --- | --- |
| ipilimumab | 64 | – | – | – | – | – | – | – | – |
| CS(=O)(=O)c1cccc(NC(=O)c2cc([N+](=O)[O-])c(Sc3c(Cl)cncc3Cl)s2)c1 [compound 5, 5-[(3,5-dichloropyridin-4-yl)sulfanyl]-N-[3-(methylsulfonyl)phenyl]-4-nitrothiophene-2-carboxamide] | – | about 55% | 68 | prolonged inhibition of USP7 activity, even after 72 h | decrease | decrease | decrease | not in the active site cysteine mutant enzyme; also recorded: failed to form an adduct | covalent irreversible adduct formation; also recorded: formed a covalent adduct |
